Source: patent US7655701B2, “Cycloalkylidene-(ortho substituted phenyl)-acetonitriles and their use as odorants” (Givaudan SA, priority 2005, dated 2010)

Assay: Determination of GC-odor threshold values
Details: gas chromatograph with sniff port, panel of trained evaluators; absolute amount delivered at the sniff port
Protocol: According to standard procedures known to the person skilled in the art, threshold values for volatile perfumery compounds are determined on a gas chromatograph equipped with a sniff port by a panel of trained evaluators. The lowest concentration smelled by each panellist is recorded as the individual threshold value expressed in ng (absolute amount of compound delivered at the sniff port).
Under identical conditions the odour threshold value for the individual compounds was measured.

First: Cc1ccccc1C(C#N)=C1CCCCC1 [Example 1, Cyclohexylidene-o-tolyl-acetonitrile]
Second: N#CC(=C1CCCCC1)c1ccccc1 [Peonile ®, cyclohexylidene-phenyl-acetonitrile]
The “odour threshold value geometric mean” value of the first is lower: 0.12 ng for the first, 0.53 ng for the second.

Compared with `Cc1ccc(C(C#N)=C2CCCCC2)cc1` [Example 2, Cyclohexylidene-p-tolyl-acetonitrile], `Cc1cccc(C(C#N)=C2CCCCC2)c1` [Example 4, Cyclohexylidene-m-tolyl-acetonitrile] is lower in “odour threshold value geometric mean” value: 2.91 ng for the first, 1.08 ng for the second.
